pIC50: −log10 of the molar value.
Test system: not listed separately
Assay: Mouse microsomal metabolism assay
Assay type: in vitro ADME
Conditions: liver microsomes; mouse hepatic microsomes, 37° C., phosphate buffer pH 7.4, NADPH regenerating system; read-out: Mouse t½
Procedure: Selected GST2 Inhibitors from Formula I Assessed in Mouse Microsomal Metabolism Assay
Selected GST2 inhibitors of General Formula (I) were screened in a mouse hepatic microsome assay to determine microsomal metabolism.
Test Articles were prepared in 50% acetonitrile.
Mouse hepatic microsomes supplied by BD GenTest Inc or an equivalent reputable supplier.
Test Articles are added to incubation plates containing phosphate buffer pH 7.4 and microsomes at a suitable protein concentration. Incubation plates are placed on a shaking water bath at 37° C. for 5 minutes pre-incubation. An aliquot of the reaction mixture is taken and added to acetonitrile (3:1). This is designated time […]. NADPH regenerating system in phosphate buffer pH 7.4 is added to initiate reactions. Aliquots from the incubation wells are taken at a number of time points and added to acetonitrile. Control incubations contained no microsomes or compounds with known microsomal stabilities. Samples were subject to centrifugation to remove denatured protein and the supernatants were analysed by LCMS.
Half lives were calculated from the log vs time transformed data according to the following equation: […]
Where λ is the slope of the linear regression line under first order (Test Article concentration <Km) conditions.

Row | half-life | Compound
1 | > 60 min | O=C(Nc1ccc(F)cc1)N1CCN(C(=O)c2cccc(F)n2)CC1 [XXIII, 4-(6-Fluoro-pyridine-2-carbonyl)-piperazine-1-carboxylic acid (4-fluoro-phenyl)-amide]
2 | 31.4 min | O=C(Nc1ccc(N2CCOCC2)nc1)N1CCN(Cc2cccc(F)c2)CC1 [XXIV, 4-(3-Fluoro-benzyl)-piperazine-1-carboxylic acid (6-morpholin-4-yl-pyridin-3-yl)-amide]
3 | 12.1 min | O=C(Nc1ccc(F)cc1)N1CCN(Cc2cccc3c2OC(F)(F)O3)CC1 [XXIX, 4-(2,2-Difluoro-benzo[1,3]dioxol-4-ylmethyl)-piperazine-1-carboxylic acid (4-fluoro-phenyl)-amide]
4 | 27.6 min | O=C(Nc1ccc(N2CCOCC2)nc1)N1CCN(Cc2ccccc2)CC1 [XXV, 4-Benzyl-piperazine-1-carboxylic acid (6-morpholin-4-yl-pyridin-3-yl)-amide]
5 | 21.9 min | O=C(Nc1ccc(F)cc1)N1CCN(Cc2ccccc2O)CC1 [XXVI, 4-(2-Hydroxy-benzyl)-piperazine-1-carboxylic acid (4-fluoro-phenyl)-amide]
6 | 20.9 min | O=C(Nc1ccc(N2CCNCC2)c(F)c1)N1CCN(Cc2cccc(F)n2)CC1 [XXVII, 4-(6-Fluoro-pyridin-2-ylmethyl)-piperazine-1-carboxylic acid (3-fluoro-4-piperazin-1-yl-phenyl)-amide]
7 | 15.5 min | O=C(Nc1ccc(N2CCOCC2)nc1)N1CCN(Cc2cc(F)cc(F)c2)CC1 [XXVIII, 4-(3,5-Difluoro-benzyl)-piperazine-1-carboxylic acid (6-morpholin-4-yl-pyridin-3-yl)-amide]
8 | 10.6 min | O=C(Nc1ccc(F)cc1)N1CCN(Cc2cccc(F)c2)CC1 [XXX, 4-(3-Fluoro-benzyl)-piperazine-1-carboxylic acid (4-fluoro-phenyl)-amide]
9 | 4.4 min | Cc1ccccc1CN1CCN(C(=O)Nc2ccc(F)cc2)CC1 [XXXI, 4-(2-Methyl-benzyl)-piperazine-1-carboxylic acid (4-fluoro-phenyl)-amide]

Target: T1, human Prostaglandin D Synthase (GST2) (Homo sapiens, UniProt O60760)
T1 construct: the open reading frame of human Prostaglandin D Synthase was amplified from cDNA; made in house; host or cells: E. coli TOP10F'
T1 sequence (O60760 whole entry): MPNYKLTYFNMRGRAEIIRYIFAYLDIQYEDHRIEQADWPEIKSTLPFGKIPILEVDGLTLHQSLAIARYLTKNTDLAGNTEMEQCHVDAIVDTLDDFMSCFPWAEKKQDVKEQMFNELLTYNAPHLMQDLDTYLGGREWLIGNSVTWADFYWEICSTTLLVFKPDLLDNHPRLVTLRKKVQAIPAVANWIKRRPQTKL
Assay: Homogeneous biochemical assay of human Prostaglandin D Synthase (GST2) based on its glutathion-S-transferase activity (GSH conjugation to monochlorobimane, fluorescence)
Conditions: not given
In short: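 N-His-tagged human PGD synthase from E. coli, assayed via its GST activity: GSH conjugation to monochlorobimane in 50 mM MES/KOH pH 6.1, 0.7 mM GSH, 2 mM MgCl2. Compounds at final picomolar to triple-digit micromolar concentrations.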

Row | pIC50 | Compound
10 | 4.79 | O=C(Nc1ccc(F)cc1)N1CCN(C(=O)c2ccccc2CO)CC1 [Compound XXIII, 4-(2-Hydroxymethyl-benzoyl)-piperazine-1-carboxylic acid (4-fluoro-phenyl)-amide]

Same assay, conditions: Table 2; comparative examples; read-out: GST2 inhibition IC50

Row | pIC50 | Compound
11 | 4.71 | O=C(Nc1ccc(F)nc1)c1cccc(C(=O)N2CCN(C(=O)Nc3ccc(F)cc3)CC2)c1 [Compound XVIII, 4-[3-(6-Fluoro-pyridin-3-ylcarbamoyl)-benzoyl]-piperazine-1-carboxylic acid (4-fluoro-phenyl)-amide, reference compound]
12 | 4.71 | O=C(Nc1ccc(F)cc1)N1CCN(C(=O)c2cccc(NS(=O)(=O)c3ccccc3)c2)CC1 [Compound XX, 4-(3-Benzenesulfonylamino-benzoyl)-piperazine-1-carboxylic acid (4-fluoro-phenyl)-amide, reference compound]
13 | 4.78 | NC(=O)c1ccccc1C(=O)N1CCN(C(=O)Nc2ccc(F)cc2)CC1 [Compound XXI, 4-(2-Carbamoyl-benzoyl)-piperazine-1-carboxylic acid (4-fluoro-phenyl)-amide, reference compound]
14 | 4.55 | COC(=O)c1ccccc1C(=O)N1CCN(C(=O)Nc2ccc(F)cc2)CC1 [XIII, 2-[4-(4-Fluoro-phenylcarbamoyl)-piperazine-1-carbonyl]-benzoic acid methyl ester, reference compound]
15 | 3.74 | O=C(Nc1ccc(F)cc1)N1CCN(C(=O)c2ccccc2Oc2ccccc2)CC1 [XIV, 4-(2-Phenoxy-benzoyl)-piperazine-1-carboxylic acid (4-fluoro-phenyl)-amide, reference compound]

Same assay, conditions: given beside the compound name in Examples 1 to 167; read-out: Potency Range (GST2 IC50)

Row | pIC50 | Compound
16 | 6.00 to 7.00 | O=C(Nc1ccc(-n2cccn2)c(F)c1)N1CCN(C(=O)c2cccc(F)c2)CC1 [Compound 143]
17 | 6.00 to 7.00 | O=C(Nc1ccc(-n2ccnc2)c(F)c1)N1CCN(C(=O)c2cccc(F)c2)CC1 [Compound 144]
18 | 6.00 to 7.00 | O=C(Nc1ccc(-n2cncn2)c(F)c1)N1CCN(C(=O)c2cccc(F)c2)CC1 [Compound 145]
19 | 7.00 to 7.96 | O=C(Nc1ccc(N2CCN(c3ccccn3)CC2)c(F)c1)N1CCN(C(=O)c2cccc(F)c2)CC1 [Compound 146, 4-(3-Fluoro-benzoyl)-piperazine-1-carboxylic acid [3-fluoro-4-(4-pyridin-2-yl-piperazin-1-yl)-phenyl]-amide]
20 | 7.00 to 7.96 | O=C(Nc1ccc(-c2cccnc2)c(F)c1)N1CCN(C(=O)c2cccc(F)c2)CC1 [Compound 147, 4-(3-Fluoro-benzoyl)-piperazine-1-carboxylic acid (3-fluoro-4-pyridin-3-yl-phenyl)-amide]
21 | 6.00 to 7.00 | O=C(Nc1ccc(C(F)(F)F)cc1)N1CCN(C(=O)c2cc(F)ccc2F)CC1 [Compound 148, 4-(2,5-Difluoro-benzoyl)-piperazine-1-carboxylic acid (4-trifluoromethyl-phenyl)-amide]
22 | 6.00 to 7.00 | O=C(Nc1ccc(C(F)(F)F)cc1)N1CCN(C(=O)c2cccc(F)c2)CC1 [Compound 149, 4-(3-Fluoro-benzoyl)-piperazine-1-carboxylic acid (4-trifluoromethyl-phenyl)-amide]
23 | 7.00 to 7.96 | O=C(c1cccc(F)c1)N1CCN(C(=S)Nc2ccc(N3CCOCC3)nc2)CC1 [Compound 151, 4-(3-Fluoro-benzoyl)-piperazine-1-carbothioic acid (6-morpholin-4-yl-pyridin-3-yl)-amide]
24 | 7.00 to 7.96 | Cc1ccccc1C(=O)N1CCN(C(=S)Nc2ccc(N3CCOCC3)nc2)CC1 [Compound 152, 4-(2-Methyl-benzoyl)-piperazine-1-carbothioic acid (6-morpholin-4-yl-pyridin-3-yl)-amide]
25 | 6.00 to 7.00 | O=C(c1cccc([N+](=O)[O-])c1)N1CCN(C(=S)Nc2ccc(N3CCOCC3)nc2)CC1 [Compound 153, 4-(3-Nitro-benzoyl)-piperazine-1-carbothioic acid (6-morpholin-4-yl-pyridin-3-yl)-amide]
26 | 6.00 to 7.00 | NC(=O)c1cccc(C(=O)N2CCN(C(=O)Nc3ccc(F)cc3)CC2)c1 [Compound 157, 4-(3-Carbamoyl-benzoyl)-piperazine-1-carboxylic acid (4-fluoro-phenyl)-amide]
27 | 6.00 to 7.00 | NC(=O)c1cccc(NC(=O)N2CCN(C(=O)c3cccc(F)c3)CC2)c1 [Compound 158, 4-(3-Fluoro-benzoyl)-piperazine-1-carboxylic acid (3-carbamoyl-phenyl)-amide]
28 | 6.00 to 7.00 | O=C(Nc1cccc(-c2ncn[nH]2)c1)N1CCN(C(=O)c2cccc(F)c2)CC1 [Compound 159, 4-(3-Fluoro-benzoyl)-piperazine-1-carboxylic acid [3-(2H-[1,2,4]triazol-3-yl)-phenyl]-amide]
29 | 6.00 to 7.00 | NC(=O)c1cc(NC(=O)N2CCN(C(=O)c3cccc(F)c3)CC2)ccc1F [Compound 160, 4-(3-Fluoro-benzoyl)-piperazine-1-carboxylic acid (3-carbamoyl-4-fluoro-phenyl)-amide]
30 | 6.00 to 7.00 | O=C(Nc1ccc(F)c(-c2ncn[nH]2)c1)N1CCN(C(=O)c2cccc(F)c2)CC1 [Compound 161, 4-(3-Fluoro-benzoyl)-piperazine-1-carboxylic acid [4-fluoro-3-(2H-[1,2,4]triazol-3-yl)-phenyl]-amide]
31 | 7.00 to 7.96 | CC(C)c1noc(-c2cccc(NC(=O)N3CCN(C(=O)c4cccc(F)c4)CC3)c2)n1 [Compound 162, 4-(3-Fluoro-benzoyl)-piperazine-1-carboxylic acid [3-(3-isopropyl-[1,2,4]oxadiazol-5-yl)-phenyl]-amide]
32 | 7.00 to 7.96 | CC(C)c1noc(-c2cc(NC(=O)N3CCN(C(=O)c4cccc(F)c4)CC3)ccc2F)n1 [Compound 163, 4-(3-Fluoro-benzoyl)-piperazine-1-carboxylic acid [4-fluoro-3-(3-isopropyl-[1,2,4]oxadiazol-5-yl)-phenyl]-amide]
33 | 7.00 to 7.96 | O=C(Nc1ccc(C(F)(F)F)cc1)N1CCN(C(=O)c2ccccc2)CC1 [Compound 164, 4-Benzoyl-piperazine-1-carboxylic acid (4-trifluoromethyl-phenyl)-amide]
34 | 6.00 to 7.00 | O=C(Nc1ccc(C(F)(F)F)cc1)N1CCN(C(=O)c2cccc(Cl)c2)CC1 [Compound 165, 4-(3-Chloro-benzoyl)-piperazine-1-carboxylic acid (4-trifluoromethyl-phenyl)-amide]
35 | 6.00 to 7.00 | O=C(Nc1cccc(Nc2ccccc2)c1)N1CCN(C(=O)c2cccc(F)c2)CC1 [Compound 166, 4-(3-Fluoro-benzoyl)-piperazine-1-carboxylic acid (3-phenylamino-phenyl)-amide]
36 | 6.00 to 7.00 | O=C(Nc1cccc(Nc2ccc(F)cc2)c1)N1CCN(C(=O)c2cccc(F)c2)CC1 [Compound 167, 4-(3-Fluoro-benzoyl)-piperazine-1-carboxylic acid [3-(4-fluoro-phenylamino)-phenyl]-amide]

Source: patent US20100234377A1 (priority 2007, published 2010)
